Patent publication US20250179106A1, “Metal Bis(Imino) Aryl Compounds and Methods Thereof” (EXXONMOBIL CHEMICAL PATENTS INC., priority 2022, published 2025)

Assay: Solubility of catalysts in alkane solvent
Assay type: physicochemical
Settings: ambient temperature (20-25° C.)
Experimental: General considerations: Solubility studies for all catalysts were performed using material as synthesized, unless otherwise noted. Solvents used were sparged with nitrogen (30-60 minutes) and dried over 3 Å mole sieves. Unless stated otherwise, all measurements were performed at ambient temperature (20-25° C.).
A measured mass of solvent was added to a known amount of catalyst. After stirring for at least 30 minutes or more, the resulting mixture was filtered. The filtrate was concentrated is to dryness, and the remaining catalyst was weighed to provide the mass of dissolved catalyst. Solubility was calculated using the formula below.
Alternatively, for mixtures prepared at a low concentration (<0.25 wt %) which remained heterogeneous (visible solids or murky), the value may be reported as being “less than” the calculated value.
Formula used to calculate solubility is listed below.

Row | Solubility (wt %) (solvent isohexane) | Solubility (wt %) (solvent pentane) | SMILES
1 | 4.2 |  | CCCC[Si](CCCC)(CCCC)CC(=Nc1c(C)cccc1C)c1cccc(C(C[Si](CCCC)(CCCC)CCCC)=Nc2c(C)cccc2C)n1.[Cl][Fe][Cl] [Catalyst 3]
2 |  | 2.6 | CCCC[Si](CCCC)(CCCC)CC(=Nc1c(C)cc(Cl)cc1C)c1cccc(C(C[Si](CCCC)(CCCC)CCCC)=Nc2c(C)cc(Cl)cc2C)n1.[Cl][Fe][Cl] [Catalyst 7]
3 |  | 1.7 | CCCC[Si](CCCC)(CCCC)CC(=Nc1c(C)ccc(Cl)c1C)c1cccc(C(C[Si](CCCC)(CCCC)CCCC)=Nc2c(C)ccc(Cl)c2C)n1.[Cl][Fe][Cl] [Catalyst 8]
4 |  | 0.15 | CCCC[Si](CCCC)(CCCC)CC(=Nc1c(C)cc(C)cc1Cl)c1cccc(C(C[Si](CCCC)(CCCC)CCCC)=Nc2c(C)cc(C)cc2Cl)n1.[Cl][Fe][Cl] [Catalyst 9]
